Results: US7741360B2, “Bi-aryl or aryl-heteroaryl substituted indoles” (AstraZeneca AB, priority 2006, dated 2010)

Target: T1, rhCRTh2 (Homo sapiens, UniProt Q9Y5Y4)
T1 construct: expressed in transfected cells; host or cells: HEK cells (membrane preparation)
T1 sequence (Q9Y5Y4 1-395): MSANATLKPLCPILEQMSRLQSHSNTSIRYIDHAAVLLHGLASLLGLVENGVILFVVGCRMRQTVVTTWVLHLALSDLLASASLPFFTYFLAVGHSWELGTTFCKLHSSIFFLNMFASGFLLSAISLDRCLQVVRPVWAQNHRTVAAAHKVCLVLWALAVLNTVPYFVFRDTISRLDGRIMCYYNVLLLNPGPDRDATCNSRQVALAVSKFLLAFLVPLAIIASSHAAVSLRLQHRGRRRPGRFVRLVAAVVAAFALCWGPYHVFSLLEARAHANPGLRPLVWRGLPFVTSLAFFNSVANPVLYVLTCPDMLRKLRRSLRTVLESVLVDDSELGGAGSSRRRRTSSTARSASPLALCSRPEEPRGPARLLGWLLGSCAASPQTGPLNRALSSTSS
Assay: Ligand binding assay, [3H]PGD2 SPA on HEK cell membranes
Conditions: [3H]PGD2 displacement, membranes of HEK cells expressing rhCRTh2/Gα16, SPA beads, RT 2 hours
Protocol: [^3H]PGD2 was purchased from Perkin Elmer Life Sciences with a specific activity of 100-210 Ci/mmol. All other chemicals were of analytical grade.
HEK cells expressing rhCRTh2/Gα16 were routinely maintained in DMEM containing 10% Foetal Bovine Serum (HyClone), 1 mg/ml geneticin, 2 mM L-glutamine and 1% non-essential amino acids. For the preparation of membranes, the adherent transfected HEKcells were grown to confluence in two layer tissue culture factories (Fisher, catalogue number TKT-170-070E). Maximal levels of receptor expression were induced by addition of […] sodium butyrate for the last 18 hours of culture. […] The final pellet was re-suspended in 4 ml of membrane homogenisation buffer per cell factory used and the protein content determined. […]
All assays were performed in Corning clear bottomed, white 96-well NBS plates (Fisher). […] (The optimum coating concentrations were determined for each batch of membranes) The beads were pelleted by centrifugation (800×g for 7 minutes at 4° C.), washed once with assay buffer (50 mM HEPES pH 7.4 containing 5 mM magnesium chloride) and finally re-suspended in assay buffer at a bead concentration of 10 mg/ml. […]

Q: Which IC50 does the source give for Cc1c(Sc2ccc(-c3ccccc3)cc2)c2cc(F)ccc2n1CC(=O)O [Example 1, [3-(Biphenyl-4-ylsulfanyl)-5-fluoro-2-methyl-indol-1-yl]-acetic acid] here?
A: The IC50 was 20 nM.
